Experimental data: patent publication US7989008B2, “Cosmetic preparations designed to reduce unsightly cellulite” (Menarini Industrie Farmaceutiche Riunite S.R.L., priority 2007, dated 2011)

Tested on: tissue affected by cellulite (surface temperature of the skin)
Test: Liquid-crystal thermography, indirect instrumental assessment of treatment efficacy
Type: in vivo, women
Details: after repeated treatment
Excerpt: Liquid-crystal thermography was used to conduct an indirect instrumental assessment of the efficacy of the treatment. On the basis of the surface temperature, this technique distinguishes between normal adipose tissue and tissue affected by cellulite, in which the reduced blood flow causes progressive cooling of the skin, proportional to the severity of the cosmetic problem. After repeated treatment with compound (I), the difference in temperature between the normal skin area (unaffected by cellulite) and the affected area had reduced considerably, about 70% of the temperature reduction previously observed having been eliminated. The effects of treatment with compounds A and B were evaluated for comparison purposes.

For CC1(C)C(=O)NN=C1c1ccc(NC2=C(Cc3cccc(C#N)c3)C(=O)CCC2)c(F)c1F [Compound A, 3-[2-[4-(4,4-dimethyl-5-oxo-4,5-dihydro-1-H-pyrazol-3-yl)-2,3-difluoro-phenylamine]-6-oxocyclohex-1-enylmethyl]-benzonitrile], the “temperature difference between normal skin area and area affected by cellulite eliminated” value was roughly 50%.

CC1(C)C(=O)NN=C1c1ccc(NC2=C(Cc3ccc(F)cc3)C(=O)CCC2)c(F)c1F [Compound of formula (I), 5-{4-[2-(4-fluoro-benzyl)-3-oxo-cyclohex-1-enylamine]-2,3-difluoro-phenyl}-4,4-dimethyl-2,4-dihydropyrazol-3-one] was tested, and the “temperature difference between normal skin area and area affected by cellulite eliminated” value was “about 70%”.

In the case of CC1(C)C(=O)NN=C1c1ccc(NC2=C(Cc3ccc(F)cc3)C(=O)CCC2)cc1F [Compound B, 5-{4-[2-(4-fluoro-benzyl)-3-oxo-cyclohex-1-enylamine]-2-fluoro-phenyl}-4,4-dimethyl-2,4-dihydro-pyrazol-3-one], the “temperature difference between normal skin area and area affected by cellulite eliminated” value is reported as roughly 50%.
